Laboratory results as given in patent US4988703A, “Carbocyclic nucleoside analogs with antiviral activity” (Abbott Laboratories, priority 1989, dated 1991).
≈ marks a conversion by molar mass, not a printed value. Like-named read-outs stand apart in the source and are kept apart here.

Legend:
[1] = test system: Herpes simplex type 1 (HSV-1) strain E-377; experiment: microbe, parasite or virus in culture; conditions: Human alphaherpesvirus 1, Vero, read-out: ID50: minimum drug concentration that inhibited the CPE by 50%
[2] = test system: Herpes simplex type 2 (HSV-2) strain MS; experiment: microbe, parasite or virus in culture; conditions: Human alphaherpesvirus 2, Vero, read-out: ID50: minimum drug concentration that inhibited the CPE by 50%
[3] = test system: African green monkey kidney (Vero); experiment: Drug cytotoxicity in Vero host cells (cytotoxicity controls of the CPE-inhibition assay); conditions: Vero, HSV-2 (MS) experiment
Method: (§1) The challenge viruses were propagated and assayed in cells that were pregrown as monolayer cultures in plastic tissue culture flasks and 96-well plates, using cell culture media appropriate for the host cell cultures. The following viruses and host cell cultures were employed:
(§2) On the day of use, a weighed sample of each compound to be evaluated was dissolved and diluted in serial 10^0.5 dilutions in the culture medium appropriate for each virus-host cell system.
(§3) Mammalian cells were pregrown as monolayers in wells of COSTAR 96-well tissue culture plates using suitable cell culture media. Stock viruses were pretitered according to the method of Reed and Muench (Amer. J. Hyg. 27:493-497, 1938) and diluted in cell culture medium to yield 32 CCID50 (cell culture infectious dose, 50%) units per 0.1 ml. Antiviral assays were designed to test seven concentrations of each compound, from cytotoxic to noncytotoxic levels, in triplicate against each of the challenge viruses in microtiter plate wells containing suitable cell monolayers. To each of the replicate cell cultures were added 0.1 ml of the test drug solution and 0.1 ml of virus suspension. Cell controls containing medium alone, virus controls containing medium and virus, and drug cytotoxicity controls containing medium and each drug concentration were run simultaneously with the test samples assayed in each experiment. […] The cell monolayers were examined microscopically for virus-induced CPE and for drug cytotoxicity.
(§4) Antiviral activity was determined by calculating the degree of inhibition of virus-induced CPE in drug-treated, virus-infected cell cultures by means of a virus rating (VR). The VR is a standard weighted measurement of antiviral activity taking into account both the degree of CPE inhibition and drug cytotoxicity, and is determined by a modification of the method of Ehrlich et al. (Ann. N.Y. Acad. Sci. 130 : 5-16, 1965) as described below. CPE was graded for each individual culture in each microtiter plate well according to the following scale:
(§5) ^3 MTC=The minimum drug concentration (ug/ml) causing any cytotoxicity.

[4] = as above; conditions: african green monkey, vero cells
Method: as §1, §2, §3, §4, §5

[5] = test system: Herpes simplex type 1 (HSV-1) strain E-377
[6] = test system: Herpes simplex type 2 (HSV-2) strain MS
[7] = test system: Human influenza type A (IV-A) strain PR/8/34 (HINI); experiment: CPE-inhibition assay against human influenza virus type A in MDCK cells; type: cell-based
[8] = in vitro; conditions: dog, mdck
Method: as §1, §2
Mammalian cells were pregrown as monolayers in wells of COSTAR 96-well tissue culture plates using suitable cell culture media. Stock viruses were pretitered according to the method of Reed and Muench (Amer. J. Hyg. 27:493-497, 1938) and diluted in cell culture medium to yield 32 CCID50 (cell culture infectious dose, 50%) units per 0.1 ml. Antiviral assays were designed to test seven concentrations of each compound, from cytotoxic to noncytotoxic levels, in triplicate against each of the challenge viruses in microtiter plate wells containing suitable cell monolayers. To each of the replicate cell cultures were added 0.1 ml of the test drug solution and 0.1 ml of virus suspension. […]
Antiviral activity was determined by calculating the degree of inhibition of virus-induced CPE in drug-treated, virus-infected cell cultures by means of a virus rating (VR). […]

| Compound | IC50 [1] | IC50 [2] | MTC: minimum drug concentration causing any cytotoxicity [3] | MCC [4] | TI (Therapeutic Index): minimum cytotoxic drug concentration divided by ID50 ([5]; HSV-1 E-377, Vero) | VR (Virus Rating) ([5]; HSV-1 E-377, Vero, VR 1.0 definite activity, 0.5-0.9 marginal to moderate, <0.5 usually none) | TI (Therapeutic Index): minimum cytotoxic drug concentration divided by ID50 ([6]; HSV-2 MS, Vero) | VR (Virus Rating) ([6]; HSV-2 MS, Vero, VR 1.0 definite activity, 0.5-0.9 marginal to moderate, <0.5 usually none) | VR (Virus Rating) [7] | MCC [8] | VR (Virus Rating) [5] | VR (Virus Rating) [6] |
| --- | --- | --- | --- | --- | --- | --- | --- | --- | --- | --- | --- | --- |
| Nc1nc2c(ncn2C2CC2CCO)c(=O)[nH]1 (stereo not drawn) [Example 2E, 9-[2-(2'-hydroxyethyl)cyclopropyl]guanine] | 31.6 µg/mL (≈ 134 µM) | 77.7 µg/mL (≈ 330 µM) | > 320 µg/mL | > 320 µg/mL | > 10.4 | 3.7 | > 4.1 | 2.3 | – | – | – | – |
| Nc1nc2c(ncn2C2CC2C(O)CO)c(=O)[nH]1 (stereo not drawn) [Example 3G] | 101 µg/mL (≈ 402 µM) | 159 µg/mL (≈ 633 µM) | > 320 µg/mL | > 320 µg/mL | 3.2 | – | 2.0 | – | 0.6 | > 320 µg/mL | 1.8 | 1.3 |
